# Activity calls are given as the source filed them.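 How the source made its calls: active means compound flagged as a likely artifact in this counterscreen, with IC50 of 10 µM or lower; inactive means IC50 above 10 µM.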
# System: HEK293 Gal4-VP16 luciferase reporter counterscreen, luminescence
# Assay: VP16-driven transactivation reporter suppression potency – cell-based, luminescence, HEK293, counter-screen for COUP-TFII inhibitor project, dose response (AID 720547);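 further: potency for lowering the luciferase signal driven by Gal4-VP16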
row,Compound,IC50
1,CC(=O)c1cn(CCOc2ccccc2C)c2ccccc12,> 85.4 µM (inactive)
2,Clc1ccc(-n2ncc3c(NCCN4CCOCC4)ncnc32)cc1,> 85.4 µM (inactive)
3,CC[C@@H](O)C[C@H]1CCC[C@@]2(C[C@@H]3OC(=O)/C=C/[C@@](C)(O)[C@@H](O)[C@H](C)[C@@H](O)[C@H](OC4CCC(N(C)C)C(C)O4)[C@@H](O)[C@](C)(O)CCCCC/C=C/[C@@H]4CC(C)(C)O[C@@]4(O)C[C@H](O2)[C@H]3C)O1 (some centres undefined),37 µM (inactive)
4,CCCCn1c2c(c(=N)c3c1CCC3)CCC2,> 85.4 µM (inactive)
5,O=C(NC(Nc1nc2ccc([N+](=O)[O-])cc2s1)(C(F)(F)F)C(F)(F)F)c1cccnc1,> 85.4 µM (inactive)
6,CC(=O)c1ccc(N2CCN(C(=S)Nc3ccc(Oc4ccccc4)cc3)CC2)cc1,> 85.4 µM (inactive)
7,Cc1sc2ncnc(NCCc3ccc(S(N)(=O)=O)cc3)c2c1C,> 85.4 µM (inactive)
8,CCCCCCn1c2c(c(=N)c3c1CCC3)CCC2,> 85.4 µM (inactive)
9,CCN(CC)S(=O)(=O)c1cccc(NC(=O)COC(=O)c2[nH]c(C)c(C(C)=O)c2C)c1,> 28.5 µM (inactive)
10,CCOC(=O)c1cnc(-n2nc(C)cc2C)nc1NC1CCCC1,50.3 µM (inactive)
11,c1ccc2cc3[nH]c(CNc4nc(N5CCOCC5)nc5c4ncn5-c4ccsc4)nc3cc2c1,> 85.3 µM (inactive)
12,Cc1oc(-c2ccc(Cl)cc2)nc1CS(=O)CC(=O)NCCCN1CCN(Cc2ccccc2)CC1 (centres undefined),> 28.5 µM (inactive)
13,COc1ccc(Cl)cc1Nc1nc(-c2sc(NC(=O)C(C)(C)C)nc2C)cs1,> 85.4 µM (inactive)
14,Cc1nc2c(-c3ccccc3)cnn2c(N)c1-c1ccccc1,59.7 µM (inactive)
15,CCN=c1scc(-c2ccc3c(c2)NC(=O)CO3)n1N=C1CCCC1,> 85.4 µM (inactive)
16,Cc1[nH]nc(C(F)(F)F)c1N=NN1CCOCC1,51.6 µM (inactive)
17,O=C(CSc1cc(Cl)ccc1Cl)N/N=C/c1ccc[nH]1,> 85.4 µM (inactive)
18,Cc1ccc(-n2nc3c(=O)n(C(C)C(=O)NCc4ccccc4Cl)nc(C)c3c2C)cc1 (centres undefined),81.8 µM (inactive)
19,Cc1nn(C)c(C(=O)NCc2ccc(Cl)cc2)c1Cl,> 85.4 µM (inactive)
20,CN(C)c1cc[n+](CC(=O)c2ccc(-c3ccccc3)cc2)cc1,> 85.4 µM (inactive)
21,CCOc1cc(S(=O)(=O)NCc2ccncc2)ccc1Cl,> 85.4 µM (inactive)
22,CC(C)(C)c1ccc(-c2nnc3sc(-c4ccccn4)nn23)cc1,> 85.4 µM (inactive)
23,Cc1cc(C)c(S(=O)(=O)NCc2ccncc2)c(C)c1,> 85.4 µM (inactive)
24,O=S(=O)(NCC1CCCO1)c1ccc(-c2ccc(S(=O)(=O)NCC3CCCO3)cc2)cc1 (centres undefined),> 85.4 µM (inactive)

row,Compound,IC50
1,CCOC(=O)C1CCCN(S(=O)(=O)c2ccc(S(=O)(=O)N(CC)CC)cc2)C1 (centres undefined),> 85.4 µM (inactive)
2,COc1ccccc1-c1cc2nc(-c3ccccc3)cc(N3CCN(C(=O)c4ccco4)CC3)n2n1,10.3 µM (inactive)
3,C=CCC1(CC=C)CCCN1C(=O)c1cc(COc2ccc(-n3cncn3)cc2)on1,> 85.4 µM (inactive)
4,COc1ccc(N2CCN(c3ncnc4c3[nH]c3ccccc34)CC2)cc1,> 85.4 µM (inactive)
5,COc1ccc(CCNc2ncnc3c2oc2ccccc23)cc1OC,56.8 µM (inactive)
6,COCCn1c(C)c(C)c2c(NCCc3ccccc3)ncnc21,> 85.3 µM (inactive)
7,CC1=CC(=Cc2sc3ccccc3[n+]2C)C=C(C)O1,84.1 µM (inactive)
8,COc1ccc(NC(=O)COc2ccc(N(C)S(=O)(=O)c3ccc(Cl)cc3)cc2)cc1OC,> 85.4 µM (inactive)
9,CCC(C)NC(=O)CCC(=O)OC1O[C@H]2OC3(C)CC[C@H]4[C@H](C)CCC(C1C)C24OO3 (some centres undefined),> 85.4 µM (inactive)
10,Cc1sc2ncnc(NCC3COc4ccccc4O3)c2c1C (centres undefined),> 85.4 µM (inactive)
11,Cc1nc2ccccc2n1Cc1ccc(Cl)cc1,> 85.4 µM (inactive)
12,COc1ccc2c(c1)[nH]c1c(N3CCN(Cc4ccc5c(c4)OCO5)CC3)ncnc12,39.6 µM (inactive)
13,Cn1c(=O)c2[nH]c(CCCCCCCCc3nc4ccccc4[nH]3)nc2n(C)c1=O,> 28.5 µM (inactive)
14,CCC(C)C(NC(=O)CCCNC(=O)CCC(=O)OC1O[C@H]2OC3(C)CC[C@H]4[C@H](C)CCC(C1C)C24OO3)C(=O)O (some centres undefined),> 85.4 µM (inactive)
15,CCC(O)C1CCN(C(=O)c2cc(COc3ccc4ncccc4c3)on2)CC1 (centres undefined),> 85.4 µM (inactive)
16,O=C(c1ccccc1)C1CCN(c2ncnc3sccc23)CC1,> 85.5 µM (inactive)
17,Cc1cc(/C=C2\Sc3ccccc3N2C)cc(C)[n+]1CC1CCCO1 (centres undefined),> 85.4 µM (inactive)
18,COc1ccc(CNc2ncnc3ccccc23)cc1,> 85.4 µM (inactive)
19,CC(=O)Nc1ccccc1OCC(=O)c1cc(C)n(Cc2cccs2)c1C,> 85.5 µM (inactive)
20,Cc1ccc(Cn2ncc3c(N4CCN(Cc5ccc(Cl)cc5)CC4)ncnc32)cc1,> 85.4 µM (inactive)
21,Fc1ccc(NC(=S)N2CCCN(c3ccc(C(F)(F)F)cn3)CC2)c(F)c1,> 85.4 µM (inactive)
22,CCCc1ccc(C(=O)O/N=C(\N)c2ccccn2)cc1,36.7 µM (inactive)
23,Cc1ccc(C(=O)NC2CCCc3c2cnn3-c2ccc(F)cc2F)cn1 (centres undefined),> 85.4 µM (inactive)
24,Cn1nc(C(C)(C)C)cc1C(=O)NCc1cc(F)cc2c1OCOC2,> 85.4 µM (inactive)

row,Compound,IC50
1,O=c1c2ccccc2oc2cc(C#CC3(O)CCCCC3)ccc12,56.2 µM (inactive)
2,O=C(CSc1nnc(Cn2nnc3ccccc32)o1)N(Cc1ccc(Cl)cc1)c1ccccc1,> 85.4 µM (inactive)
3,CSc1ccccc1OCc1cc(C(=O)N2CCC(c3ccncc3)CC2)no1,> 85.4 µM (inactive)
4,Cc1cccc2cc(-c3ccccc3)c(-c3ccccc3)c[n+]12,> 85.4 µM (inactive)
5,NC(=O)c1c(-c2ccc(Cl)cc2Cl)csc1NC(=O)Cc1ccccc1,> 85.4 µM (inactive)
6,CCN1/C(=C/c2ccc3cc(C)ccc3[n+]2CC)Sc2ccccc21,22 µM (inactive)
7,Cc1ccc(-c2cc3cccc[n+]3cc2-c2ccc(C)cc2)cc1,> 28.5 µM (inactive)
8,Fc1ccc(CN2CCN(c3ncc(Cc4ccccc4)cn3)CC2)c(Cl)c1,> 85.3 µM (inactive)
9,CCCCOC(=O)c1[nH]c2c(c1C)C(=O)CC(c1cc(OC)c(OC)c(OC)c1)C2 (centres undefined),> 85.4 µM (inactive)
10,CCSc1nc2ccccc2n1C(=O)/C=C/c1ccc(OC)c(OC)c1,19.4 µM (inactive)
11,Oc1ccc(Oc2ccc3c(C(F)(F)F)cc(C(F)(F)F)nc3n2)cc1,37 µM (inactive)
12,Cc1ccc(-c2cn(-c3ccccc3)c3[n+]2CCCS3)cc1,> 85.4 µM (inactive)
13,Cc1sc(NC(=O)CN2CCOCC2)nc1-c1ccc2c(c1)CCN2S(=O)(=O)c1ccccc1,> 85.4 µM (inactive)
14,Cc1nn(C)c(C)c1CN(Cc1nc(CCC(C)C)no1)C(C)C,> 85.4 µM (inactive)
15,Clc1ccc(OCCN2CCN(c3ncnc4sccc34)CC2)cc1,> 85.5 µM (inactive)
16,Cc1c(Cl)cccc1NC(=O)N1CCCN(c2nc(-c3ccccc3)ns2)CC1,> 85.4 µM (inactive)
17,CC[n+]1c(C=C2C=C(C)OC(C)=C2)sc2ccccc21,> 85.4 µM (inactive)
18,Cc1cc(NC2CCCC2)n2ncc(-c3ccccc3)c2n1,62.9 µM (inactive)
19,Cc1nc2c(-c3ccc(Cl)cc3)cnn2c(N)c1-c1ccc(F)cc1,> 85.4 µM (inactive)
20,Cc1nn(C)c(C)c1NC(=O)COc1ccc(Cl)cc1Br,> 85.4 µM (inactive)
21,C=CCC1(CC=C)CCCN1C(=O)c1cc(COc2ccc(C)nc2)on1,> 85.4 µM (inactive)
22,CC(Nc1ncnc2ccccc12)c1ccccc1 (centres undefined),> 85.5 µM (inactive)
23,Cn1nc(CC(=O)Nc2ccc(N3CCN(C(=O)OC(C)(C)C)CC3)cc2)c2ccccc2c1=O,81.2 µM (inactive)
24,C[C@H]1C[C@@H](C)C(=O)[C@@H]([C@H](O)CC2CC(=O)NC(=O)C2)C1,> 85.4 µM (inactive)

row,Compound,IC50
1,Oc1ccc(CCNc2ncnc3ccc(Cl)cc23)cc1,> 85.4 µM (inactive)
2,CC(C)(C)c1ccc(-c2cc(-c3ccccc3O)[nH]n2)cc1,36.6 µM (inactive)
3,Cc1ccc(S(=O)(=O)CC2CSc3nc4ccccc4n32)cc1 (centres undefined),> 85.4 µM (inactive)
4,NC(=S)NN=C1c2cc(OCCN3CCOCC3)ccc2-c2ccc(OCCN3CCOCC3)cc21,12 µM (inactive)
5,Cc1cc(S(=O)(=O)NCc2ccncc2)c(C)cc1Br,> 85.4 µM (inactive)
6,CC1(C)CC(=O)C=C(c2ccc(-c3cnc4ccccc4c3)cc2)C1=O,12.5 µM (inactive)
7,Nc1nc2ccccc2cc1C(=O)NCc1ccc(-c2ccccc2)cc1,> 85.3 µM (inactive)
8,Cc1cccc(Nc2nc(NCc3ccco3)c3ccccc3n2)c1,53 µM (inactive)
9,Oc1ccc(-[n+]2c(-c3ccccc3)cc(-c3ccccc3)cc2-c2ccccc2)cc1,12.6 µM (inactive)
10,CCOc1ccc(S(=O)(=O)NCc2ccncc2)cc1,> 85.4 µM (inactive)
11,CCOc1ccc(-n2c(-c3ccccc3)c[n+]3c2CCCCC3)cc1,> 85.4 µM (inactive)
12,COc1ccc(/C=N/OCC(=O)NC(c2ccccc2)c2ccccc2)cc1OC,> 85.4 µM (inactive)
13,CC(=O)c1c(C)[nH]c(C(=O)OCCCCN2C(=O)c3ccccc3C2=O)c1C,63.7 µM (inactive)
14,CC(=O)Nc1ccc(SCC(=O)c2cc(C)n(Cc3cccs3)c2C)cc1,> 85.4 µM (inactive)
15,O=C1N(c2ccccc2)C[C@@H]2C[C@@H](c3cc4ccccc4o3)N3CCC[C@@]123,> 85.4 µM (inactive)
16,CC(C)(C)c1ccc(CSc2cnn(C(C)(C)C)c(=O)c2Cl)cc1,> 85.4 µM (inactive)
17,C[n+]1c2n(c3ccccc31)N=C(c1ccccc1)CS2,> 85.5 µM (inactive)
18,CC(C)OCCCNc1ncnc2c1[nH]c1ccc(F)cc12,> 85.4 µM (inactive)
19,Cc1ccccc1Cn1c(C)nc2ccccc21,> 85.4 µM (inactive)
20,O=C(c1cc(COc2cccc3cnccc23)on1)N1CCCC(CCCO)C1 (centres undefined),> 85.4 µM (inactive)
21,Cc1cc(C)c(O)c(C(=O)CC2CC(=O)NC(=O)C2)c1,> 85.4 µM (inactive)
22,NC(=O)[C@H]1CC2(CC(c3cccc(NC(=O)COc4ccc(Cl)cc4)c3)=NO2)CN1C(=O)Cc1ccc([N+](=O)[O-])cc1 (some centres undefined),> 85.5 µM (inactive)

# Reference: PubChem BioAssay AID720547 (The Scripps Research Institute Molecular Screening Center, 2013)
